Data as given in patent US20250127778A1, “CANCER IMMUNOTHERAPY COMPOSITION CONTAINING INTERACTION INHIBITOR OF STING AND TRIM29 AS ACTIVE INGREDIENT” (SPARK BIOPHARMA, INC, priority 2021, published 2025).

Columns and labels:
[1] = system: TRIM29-mediated Lys48 polymerized multi-ubiquitination of STING; assay: ELISA detection of STING Lys48 polymerized multi-ubiquitination in HEK293T cells; type: cell-based, human; conditions: with MG132, three hours, FIG. 8
Procedure: It was confirmed whether the oxopiperazine derivatives of Formulas 1 to 6 increased the intracellular amount by preventing the degradation of STING through TRIM29-mediated Lys48 polymerized multi-ubiquitination (K48 linkage-specific polyubiquitination).
Specifically, HEK293T cells were seeded in a transparent 6-well plate and cultured for one day. […] At this time, only the effect of the compound was quantitatively detected in a manner of using an analysis value of the sample that was not treated with MG132, a proteasome inhibitor that prevents the removal of ubiquitinated proteins, as a control group and subtracting the analysis value from an analysis value of the sample that was treated with MG132. […] The protein concentration of the supernatant was measured by using Bradford assay reagent. […] To confirm the quantitative concentration, a 5× SDS-PAGE loading buffer (Biosesang) was added at the ratio of the manufacturer to a portion of the sample, and then the resultant was treated at 95° C. for five minutes and analyzed by using the western blotting method described above. […]

[2] = system: CT26 tumor; assay: Tumor growth in CT26 in vivo syngeneic mouse model; conditions: CT26, intratumoral, FIG. 23
Procedure: 2×10^5 CT26 cell lines were prepared in 50 μL culture medium and subcutaneously injected. […] The cGAMP solution was manufactured with a final composition of PEG400:distilled water=40:60, and 20 μL was injected each time. The solution of the compound of Formula 1 was manufactured with the composition of DMSO:PEG400:distilled water=2:40:58, and 20 μL was injected each time. The cGAMP solution was injected once every two days, four times in total, and the solution of the compound of Formula 1 was injected once every four days, two times in total, starting with the second administration of cGAMP. The size of the tumor was measured by using calipers every two days, and the volume thereof was calculated as (length×width×height/2). The body weight of the mice was also measured every two days.

[3] = molecular target: T1, STING (Mus musculus, UniProt Q3TBT3); assay: Western blotting of intracellular STING in Raw264.7 cells; type: cell-based; design: endogenous in cells; host or cells: Raw264.7; conditions: concentration-dependent, FIG. 16
T1 sequence (Q3TBT3 1-378): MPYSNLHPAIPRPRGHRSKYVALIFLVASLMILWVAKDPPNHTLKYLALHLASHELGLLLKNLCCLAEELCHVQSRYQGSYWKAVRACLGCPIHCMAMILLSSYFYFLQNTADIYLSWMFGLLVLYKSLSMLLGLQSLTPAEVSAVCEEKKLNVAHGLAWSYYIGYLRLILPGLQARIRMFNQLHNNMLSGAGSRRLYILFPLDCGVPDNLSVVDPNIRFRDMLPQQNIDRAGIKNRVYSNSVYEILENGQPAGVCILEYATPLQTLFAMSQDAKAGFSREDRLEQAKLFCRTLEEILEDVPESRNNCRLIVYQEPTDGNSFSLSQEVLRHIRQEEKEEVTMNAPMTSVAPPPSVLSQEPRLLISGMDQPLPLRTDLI

[4] = combination with cGAMP compared with the control group

With COc1ccc(CC2=CN(c3ccc(C(=O)NC[C@H]4CCCO4)cc3[N+](=O)[O-])[C@H](C(C)C)C(=O)N2Cc2ccc(O)cc2)cc1 [Formula 1, 4-((R)-4-(4-hydroxybenzyl)-2-isopropyl-5-(4-methoxybenzyl)-3-oxo-3,4-dihydropyrazin-1 (2H)-yl)-3-nitro-N-(((R)-tetrahydrofuran-2-yl)methyl)benzamide] the “TRIM29-mediated lysine 48 polymerized multi-ubiquitination of STING” value [1] was “inhibited”, the tumor growth ([2]; combination with cGAMP compared with single treatment with cGAMP) was “inhibited in a concentration-dependent manner” and the tumor growth [2, 4] was “inhibited”. For the same compound, the “weight of the tumor extracted on the final day” value [2, 4] was “reduced” and the “intracellular amount of STING” value [3] was “increased”.
